Patent publication US12240862B2, “Inhibitors of peptidylarginine deiminases” (Gilead Sciences, Inc., priority 2020, dated 2025)

Tests used:
[1] = system: models of chronic and acute inflammatory diseases; details: MRL/lpr lupus, hemorrhagic shock in rats, CLP sepsis, DSS-colitis, ApoE-/- arteriosclerosis, diabetic wound healing models; cited from earlier work
murine CIA model = details: prophylactic treatment; cited from earlier work
human PAD4 = biological target: T1, human PAD4 (Homo sapiens, UniProt Q9UM07); test: In vitro PAD4 BAEE biochemical assay; details: human PAD4, BAEE substrate; 5 nM PAD4, 2 mM calcium chloride, 3 mM BAEE; geometric mean of multiple experiments
T1 construct: human PAD4 (NM_012387), A2P663, was PCR amplified; His-SUMO (N, cleaved yes); made in house; host or cells: E. coli BL21(DE3)
T1 sequence (Q9UM07 2-663): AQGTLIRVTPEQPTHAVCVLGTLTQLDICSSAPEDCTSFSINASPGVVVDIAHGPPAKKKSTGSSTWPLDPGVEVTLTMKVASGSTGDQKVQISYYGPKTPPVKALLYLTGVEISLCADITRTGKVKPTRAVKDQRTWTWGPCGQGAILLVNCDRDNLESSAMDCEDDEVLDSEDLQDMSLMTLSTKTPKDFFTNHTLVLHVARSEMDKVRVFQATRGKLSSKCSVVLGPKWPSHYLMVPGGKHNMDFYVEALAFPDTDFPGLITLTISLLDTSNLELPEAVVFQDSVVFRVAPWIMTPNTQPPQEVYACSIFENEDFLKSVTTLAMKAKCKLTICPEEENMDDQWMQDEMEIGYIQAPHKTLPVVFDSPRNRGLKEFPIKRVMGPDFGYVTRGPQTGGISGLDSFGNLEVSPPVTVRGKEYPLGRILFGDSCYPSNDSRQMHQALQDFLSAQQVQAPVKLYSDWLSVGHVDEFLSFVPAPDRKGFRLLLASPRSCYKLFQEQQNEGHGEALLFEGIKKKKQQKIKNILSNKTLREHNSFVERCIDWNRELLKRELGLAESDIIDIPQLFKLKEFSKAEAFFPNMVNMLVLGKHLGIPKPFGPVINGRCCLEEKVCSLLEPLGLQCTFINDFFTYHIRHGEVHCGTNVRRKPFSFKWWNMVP
In short: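 Tag-free recombinant hPAD4 (5 nM), 2 mM CaCl2, 3 mM BAEE, 50 mM MOPS pH 7.6, 2 mM DTT; 30 min compound preincubation, 2 h reaction, all 25 °C. EDTA quench; ammonia read via o-phthalaldehyde amine coupling, 1 h.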

Row | IC50 (human PAD4) | Compound | clinical, inflammatory, histopathological and mechanical end points, NETosis, outcome [1] | clinical and histological scores (murine CIA model)
1 |  | NC(=O)[C@H](CCCN=C(N)CCl)NC(=O)c1ccccc1 [chloroamidine] | reduction of clinical, inflammatory, histopathological and mechanical end points | improvement of clinical and histological scores
2 |  | GSK199 |  | improvement of clinical and histological scores
3 |  | YW3-56 | reduction of clinical, inflammatory, histopathological and mechanical end points | 
4 | 228 nM | COc1cc(C(=O)N2[C@H]3CC[C@@H]2[C@H](N)C3)cc2nc(-c3cc4ccc(C5CCN(C(=O)N6CCCC6)CC5)nc4n3CC3CC3)c(C)n12 [Example 525, [(1~{R},2~{R},4~{S})-2-amino-7-azabicyclo [2.2.1]heptan-7-yl]-[2-[1-(cyclopropylmethyl)-6-[1-(pyrrolidine-1-carbonyl)piperidin-4-yl]pyrrolo [2,3-b]pyridin-2-yl]-5-methoxy-3-methylimidazo [1,2-a]pyridin-7-yl]methanone] |  | 
5 | 25600 nM | COc1cc(C(=O)N[C@H]2CNC[C@@H](F)C2)cc2nc(-c3cc4ccc(N(C(F)F)S(C)(=O)=O)nc4n3CC3CC3)c(C)n12 [Example 307, 2-[1-(cyclopropylmethyl)-6-[difluoromethyl (methylsulfonyl)amino]pyrrolo[2,3-b]pyridin-2-yl]-~{N}-[(3~{R},5~{S})-5-fluoropiperidin-3-yl]-5-methoxy-3-methylimidazo [1,2-a]pyridine-7-carboxamide] |  | 

Row | Compound | IC50 (human PAD4) | clinical, inflammatory, histopathological and mechanical end points, NETosis, outcome [1] | clinical and histological scores (murine CIA model)
6 | CCC(NC(C)=O)c1ccc2cc(-c3nc4cc(C(=O)N5CCC[C@@H](N)C5)cc(OC)n4c3C)n(CC3CC3)c2n1 (stereo partly shown) [Example 193, ~{N}-[1-[2-[7-[(3~{R})-3-aminopiperidine-1-carbonyl]-5-methoxy-3-methylimidazo [1,2-a]pyridin-2-yl]-1-(cyclopropylmethyl)pyrrolo [2,3-b]pyridin-6-yl]propyl]acetamide] | 400 nM |  | 
